Literature values, collected in patent US8079695B2, “Inkjet inks having improved print uniformity” (Eastman Kodak Company, priority 2008, dated 2011).

Conditions: measured and predicted values (handbooks or ACD/LABS v8.14); lowest pKa given for di-carboxylic acids

Compound	pKa
C=CC(=O)NC(C)(C)CS(=O)(=O)O [2-acrylamido-2-methylpropane sulfonic acid]	1.7
C=C(C)C(=O)OCCS(=O)(=O)O [2-propenoic acid, 2-methyl-, 2-sulfoethyl ester]	1.0
C=CC(=O)O [Acrylic acid]	4.3
C=CCS(=O)(=O)O [Allyl sulfonic acid]	1.5
C/C(=C\C(=O)O)C(=O)O [Mesaconic acid]	3.1
C=C(C)C(=O)O [Methacrylic acid (MA), Methacrylic acid]	4.7
O=C(O)/C=C/Cl [trans-chloroacrylic acid]	3.7
C=C(Cl)C(=O)O [α-chloroacrylic acid]	3.3
